Reference: patent US4340543A, “Sulfonium compounds” (Taiho Pharmaceutical Company Limited, priority 1980, dated 1982)

Columns and labels:
Meth-A cells = assay: Antitumor activity on a syngenic Meth-A tumor (tumor weight, i.v.); assay type: in vivo, male BALB/C mice; details: 7 consecutive days, day 17
Protocol: (1) Antitumor activity on a syngenic Meth-A tumor.
(§1) Ten male BALB/C mice in each group, weighing 25-30 g, were subcutaneously inoculated with 2×10^4 Meth-A cells. A solution of the compound in physiological saline was injected intravenously at the dose shown in Table 4 below once a day for consecutive 7 days starting with the next day of the tumor inoculation. Seventeen days after the tumor inoculation, mice were sacrificed, and tumors were weighed.
Growth inhibition was assessed, tumor weight in the treated mice divided by tumor weight in the control mice.

[1] = tested on: transplantable fibrosarcoma induced by 3-methylcholanthrene; assay: Antitumor activity on a 3-methylcholanthrene-induced transplantable tumor (tumor weight, i.v.); assay type: in vivo, male C57BL/6 mice; details: every other day 5 times, day 21
Protocol: (3) Antitumor activity on a 3-methylcholanthrene-induced transplantable tumor.
Ten male C57BL/6 mice in each group weighing 20-25 g were subcutaneously inoculated with 5×10^4 or 1×10^5 cells of transplantable fibrosarcoma, which was induced in C57BL/6 strain by 3-methylcholanthrene and maintained syngenetically in ascites form. A solution of the compound in physiological saline was injected intravenously at the dose shown in Table 6 below every other day 5 times, starting with the next day of the tumor inoculation. Twenty-one days after the tumor inoculation, mice were sacrificed and tumors were weighed.

[2] = tested on: delayed hypersensitivity response; assay: Effect on a cell-mediated response (picryl chloride delayed hypersensitivity, ear swelling, oral); assay type: in vivo, male BALB/C mice; details: for Increase relative to control group (ear swelling) / Increase of swelling (× 10^-4): 7 days; for Increase of swelling (× 10^-4): 24 hours after challenge; for effect on the delayed hypersensitivity response (in words): oral, Table 8 doses
Protocol: (5) Effect on a cell-mediated response
Ten male BALB/C mice in each group, weighing in 20-25 g, were used. Mice were immunized by applying the skin of the clipped abdomen with 0.1 ml of 7% picryl chloride in absolute alcohol on day 0, and challenge was with 0.02 ml of 1% picryl chloride in olive oil applied to the ear on day 7. The ear was measured again 24 hours later by a dial thickness gauge. A solution of the compound in water was orally administered at the dose shown in Table 8 below daily for seven consecutive days starting with day 1.

[3] = Acute toxicity test (up-down method, i.v.); details: mouse, in vivo, iv, male ddy mice
Protocol: Male ddy mice weighing 20 g were used. A solution of the compound in physiological saline was injected intravenously. The dose lethal to 50% of mice was determined by the up-down method.

sarcoma 180 cells = assay: Antitumor activity on sarcoma 180 (tumor weight, i.v.); assay type: in vivo, male ICR mice; details: 10 consecutive days, day 17
Protocol: (2) antitumor activity on sarcoma 180
as §1, with “ICR” for “BALB/C”, “30-35” for “25-30”, “5×10^5 sarcoma 180” for “2×10^4 Meth-A”, “5” for “4”, “for 10” for “for”, “consecutive” for “consecutive 7”

[4] = tested on: spleen hemolytic plaque forming cells; assay: Effect on humoral response (hemolytic plaque forming cells, sheep red blood cells, i.p.); assay type: in vivo, male BALB/C mice; details: for Increase (hemolytic plaque forming cells vs saline control) / Cell count/spleen (hemolytic plaque forming cells): day 0 to 4; for Cell count/spleen (hemolytic plaque forming cells): counted day 5
Protocol: (4) Effect on humoral response
Ten male BALB/C mice in each group, weighing 25-30 g, were intravenously injected with 1×10^7 sheep red blood cells on day 0. A solution of the compound in physiological saline was injected intraperitoneally at the dose shown in Table 7 below from day 0 to day 4.
On day 5, spleen hemolytic plaque forming cells were counted by the technique of Jerne et al (Science, 140, 405, 1963) modified by Cunningham et al (Immunology, 14, 599, 1968).

[5] = 3 mg/kg/day i.v., cell count 1 × 10^5

SMILES: C[S+](C)CCC1CCCO1 (centres unmarked) [Compound 29, ethylene(tetrahydro-2-furanyl)dimethylsulfonium p-toluenesulfonate]
- Inhibition (Meth-A tumor growth) (Meth-A cells; 0.4 mg/kg/day i.v.): 60.7%
- Inhibition (Meth-A tumor growth) (Meth-A cells; 2.0 mg/kg/day i.v.): 69.8%
- Inhibition (Meth-A tumor growth) (Meth-A cells; 10.0 mg/kg/day i.v.): 39.6%
- Inhibition (fibrosarcoma growth) [1, 5]: 66.7%
- Increase relative to control group (ear swelling) ([2]; 20 mg/kg/day oral): 26.0%
- Increase of swelling (× 10^-4) ([2]; 20 mg/kg/day oral): 44.8 ± 9.5 × 10^-4
- Increase relative to control group (ear swelling) ([2]; 100 mg/kg/day oral): 35.3%
- Increase of swelling (× 10^-4) ([2]; 100 mg/kg/day oral): 47.9 ± 13.2 × 10^-4
- Increase relative to control group (ear swelling) ([2]; 500 mg/kg/day oral): -11.6%
- Increase of swelling (× 10^-4) ([2]; 500 mg/kg/day oral): 31.3 ± 13.5 × 10^-4
- effect on the delayed hypersensitivity response (in words) [2]: augment the delayed hypersensitivity response
- LD50 [3]: 131 mg/kg

SMILES: C[S+](CCOC(=O)c1ccccc1)CC1CCCO1 (centres unmarked) [Compound 27]
- Inhibition (sarcoma 180 growth) (sarcoma 180 cells; 0.4 mg/kg/day i.v.): 75.7%
- LD50 [3]: 94 mg/kg

SMILES: C[S+](C)CC1CCCO1 (centres unmarked) [Compound 1, methylene(tetrahydro-2-furanyl)dimethylsulfonium p-toluenesulfonate]
- Inhibition (Meth-A tumor growth) (Meth-A cells; 0.8 mg/kg/day i.v.): 39.9%
- Inhibition (Meth-A tumor growth) (Meth-A cells; 4.0 mg/kg/day i.v.): 63.9%
- Inhibition (sarcoma 180 growth) (sarcoma 180 cells; 0.8 mg/kg/day i.v.): 66.4%
- Inhibition (fibrosarcoma growth) ([1]; 10 mg/kg/day i.v., cell count 5 × 10^4): 71.5%
- Increase (hemolytic plaque forming cells vs saline control) ([4]; 2.5 mg/kg/day i.p.): 52.6%
- Cell count/spleen (hemolytic plaque forming cells) ([4]; 2.5 mg/kg/day i.p.): 322 ± 75.2
- Increase (hemolytic plaque forming cells vs saline control) ([4]; 10 mg/kg/day i.p.): 35.1%
- Cell count/spleen (hemolytic plaque forming cells) ([4]; 10 mg/kg/day i.p.): 285 ± 113.5
- Increase (hemolytic plaque forming cells vs saline control) ([4]; 40 mg/kg/day i.p.): 85.8%
- Cell count/spleen (hemolytic plaque forming cells) ([4]; 40 mg/kg/day i.p.): 392 ± 91.4
- increase in the number of hemolytic plaque forming cells (in words) ([4]; at the doses of 2.5 mg/kg and 40 mg/kg, i.p.): significant increases
- Increase relative to control group (ear swelling) ([2]; 20 mg/kg/day oral): -3.4%
- Increase of swelling (× 10^-4) ([2]; 20 mg/kg/day oral): 34.2 ± 6.0 × 10^-4
- Increase relative to control group (ear swelling) ([2]; 100 mg/kg/day oral): 43.5%
- Increase of swelling (× 10^-4) ([2]; 100 mg/kg/day oral): 50.8 ± 13.4 × 10^-4
- Increase relative to control group (ear swelling) ([2]; 500 mg/kg/day oral): 11.0%
- Increase of swelling (× 10^-4) ([2]; 500 mg/kg/day oral): 39.3 ± 9.8 × 10^-4
- effect on the delayed hypersensitivity response (in words) [2]: augment the delayed hypersensitivity response
- LD50 [3]: 130 mg/kg

SMILES: C[S+](C)CCC1CCCCO1 (centres unmarked) [Compound 58]
- Inhibition (Meth-A tumor growth) (Meth-A cells; 2.0 mg/kg/day i.v.): 49.2%
- LD50 [3]: 80 mg/kg

SMILES: CCCC[S+](C)CC1CCCO1 (centres unmarked) [Compound 12]
- Inhibition (fibrosarcoma growth) [1, 5]: 44.3%
- LD50 [3]: 90 mg/kg

SMILES: C[S+](C)CC1CCCCO1 (centres unmarked) [Compound 50, methylene(tetrahydro-2-pyranyl)dimethylsulfonium p-toluenesulfonate]
- Inhibition (sarcoma 180 growth) (sarcoma 180 cells; 3.0 mg/kg/day i.v.): 73.3%
- LD50 [3]: 135 mg/kg

SMILES: C[S+](C)CCCC1CCCO1 (centres unmarked) [Compound 46]
- Inhibition (Meth-A tumor growth) (Meth-A cells; 0.2 mg/kg/day i.v.): 58.1%
- LD50 [3]: 13.2 mg/kg
